Results published in ChEMBL document CHEMBL1140669, “Potent and selective CC-chemokine receptor-2 (CCR2) antagonists as a potential treatment for asthma” (Bioorg Med Chem Lett, 2007).

Tests used:
[1] = […] bioavailability in sc dosed rat; format: ADME, organism-based; conditions: in vivo, subcutaneous
[2] = […] bioavailability in ip dosed rat; format: ADME, organism-based; conditions: in vivo, intraperitoneal
[3] = Metabolic stability in human liver microsomes after 1 hr; format: ADME, Microsome; conditions: read-out: Stability
[4] = Aqueous solubility at pH 7; format: physicochemical
[5] = Aqueous solubility at pH 2; format: physicochemical

- bioavailability [1]: 100%
- bioavailability [2]: 74%
- remaining at 1 h [3]: 100%
- solubility [4]: > 7 mg/mL
- solubility [5]: > 7 mg/mL
Structure (SMILES): C[N+](C)(Cc1ccc(NC(=O)c2ccc(Cl)c(Cl)c2)cc1)C1CCOCC1 [JNJ-17166864 CATION]
